In patent US11840686B2, “Modulation of prekallikrein (PKK) expression” (Ionis Pharmaceuticals, Inc., priority 2013, dated 2023):
Strand notation (5' to 3'): a small letter for the sugar, then the base; units joined by * are phosphorothioate-linked, units joined directly phosphodiester-linked; [ ] holds rarer units or linkages, { } end groups; capitals alone tell only the bases. e = 2'-O-(2-methoxyethyl) (MOE); [5mC] = 5-methylcytosine; d = 2'-deoxy (DNA)

System: human PKK mRNA
Experiment: Antisense inhibition of human PKK mRNA in HepaRG cells, 5,000 nM (Example 2)
Assay type: cell-based
Method in brief: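 Percent inhibition of PKK mRNA is relative to untreated control, with qRT-PCR (probe set RTS3454) values adjusted to total RNA by RIBOGREEN. Oligonucleotides, fully phosphorothioate 2′-MOE gapmers, were delivered at 5,000 nM by electroporation into 20,000 HepaRG cells/well for about 24 h.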

[1] = Table 7, HepaRG cells, electroporation with 5,000 nM antisense oligonucleotide, approx. 24 hours, PKK mRNA by RT-PCR (RTS3454), relative to untreated control cells
[2] = human PKK mRNA, HepaRG cells, 5-10-5 motif oligonucleotides targeting SEQ ID NO: 1 and 10
[3] = HepaRG cells, 5,000 nM antisense oligonucleotide, human PKK mRNA, Table 18
[4] = HepaRG cells, electroporation with 5,000 nM antisense oligonucleotide, approximately 24 hours, PKK mRNA by RT-PCR (RTS3454), relative to untreated control cells, Table 5 experiment
[5] = HepaRG cells, 5,000 nM antisense oligonucleotide, 5-10-5 gapmers, Table 17
[6] = human PKK mRNA, HepaRG cells, 5,000 nM antisense oligonucleotide, Table 18
[7] = HepaRG cells, electroporation, 5,000 nM antisense oligonucleotide, approx. 24 hours, primer probe set RTS3454, relative to untreated control cells, Table 12
[8] = Table 8, HepaRG cells, electroporation with 5,000 nM antisense oligonucleotide, approx. 24 hours, PKK mRNA by RT-PCR (RTS3454), relative to untreated control cells
[9] = HepaRG cells, electroporation, 5,000 nM antisense oligonucleotide, approx. 24 hours, primer probe set RTS3454, relative to untreated control cells, Table 11
[10] = HepaRG cells, electroporation with 5,000 nM antisense oligonucleotide, approximately 24 hours, PKK mRNA by RT-PCR (RTS3454), relative to untreated control cells, Table 6 experiment

Substance: 547390 (eA*eT*e[5mC]*e[5mC]*eA*dG*dA*dT*dA*dT*dG*dG*dT*dG*dT*eT*eT*eT*e[5mC]*eT; antisense) [compound 547390]
- % inhibition [1]: 63%

Substance: 547628 (antisense e[5mC]*eT*e[5mC]*eT*eA*d[5mC]*d[5mC]*dT*dA*dT*dA*dA*d[5mC]*dT*d[5mC]*eT*eA*eA*e[5mC]*eA) [compound 547628]
- % inhibition [2]: 34%

Substance: 546886 (e[5mC]*eT*eA*eT*eG*dT*d[5mC]*dA*d[5mC]*dT*dG*dT*dA*d[5mC]*d[5mC]*eT*eA*eT*eA*eA; antisense) [compound 546886]
- % inhibition [2]: 80%

Substance: 547478 (antisense e[5mC]*eA*eT*eT*e[5mC]*dT*dT*d[5mC]*dA*dT*dT*dT*dG*dT*dT*eA*e[5mC]*e[5mC]*eA*eA) [compound 547478]
- % inhibition (Table 9 experiment, HepaRG cells, 20,000 cells per well, electroporation with 5,000 nM antisense oligonucleotide, approx. 24 hours, PKK mRNA by RT-PCR (RTS3454), relative to untreated control cells): 85%
- % inhibition (Table 10 experiment, HepaRG cells, 20,000 cells per well, electroporation with 5,000 nM antisense oligonucleotide, approx. 24 hours, PKK mRNA by RT-PCR (RTS3454), relative to untreated control cells): 55%

Substance: 548706 (DNA e[5mC]*eT*eA*dG*dT*dT*dT*d[5mC]*d[5mC]*dT*dA*dT*dA*eA*e[5mC]*eT; antisense) [compound 548706]
- % inhibition [3]: 0%

Substance: 547281 (antisense eT*eT*eG*e[5mC]*eT*dT*dG*dA*dA*dT*dA*dA*dA*dA*dT*e[5mC]*eA*eT*eT*e[5mC]) [compound 547281]
- % inhibition [4]: 41%

Substance: 547023 (eG*eA*eT*eT*eG*dG*dT*dG*dG*d[5mC]*dG*dG*dG*dA*dT*e[5mC]*eG*eG*eT*eG; antisense) [compound 547023]
- % inhibition [5]: 91%

Substance: 546164 (eT*eG*eA*eT*eT*dG*dA*dA*d[5mC]*dT*dT*dG*d[5mC]*dT*dG*eG*eA*eA*eG*eA; antisense) [compound 546164]
- % inhibition [4]: 33%

Substance: 548754 (antisense eA*eT*e[5mC]*eA*d[5mC]*dT*dG*dT*dA*d[5mC]*dT*dA*dG*dT*eT*eT*e[5mC]*e[5mC]) [compound 548754]
- % inhibition [6]: 77%

Substance: 547746 (eG*eT*eT*eG*eG*dT*dG*dG*d[5mC]*dG*dG*dG*dA*dT*d[5mC]*eG*eG*eT*eG*eG; antisense) [compound 547746]
- % inhibition [5]: 0%

Substance: 548768 (antisense eG*eT*eA*eT*d[5mC]*dA*d[5mC]*dT*dG*dT*d[5mC]*d[5mC]*dT*eA*eT*eA*eT) [compound 548768]
- % inhibition [6]: 56%

Substance: 547555 (eT*eG*eT*e[5mC]*eT*d[5mC]*d[5mC]*dT*dT*d[5mC]*d[5mC]*dA*d[5mC]*dT*dT*eG*e[5mC]*eT*e[5mC]*e[5mC]; antisense) [compound 547555]
- % inhibition [7]: 58%

Substance: 547421 (e[5mC]*eA*eT*e[5mC]*e[5mC]*dA*dT*dA*dG*dA*dT*dA*dA*dT*d[5mC]*eT*eT*eA*eA*eG; antisense) [compound 547421]
- % inhibition [8]: 69%

Substance: 546746 (eT*e[5mC]*e[5mC]*eT*eG*dT*dT*dG*d[5mC]*d[5mC]*dT*dG*dA*d[5mC]*dA*eT*eG*e[5mC]*eT*eA; antisense) [compound 546746]
- % inhibition (Table 13, human PKK mRNA in HepaRG cells, 5-10-5 gapmers): 65%

Substance: 546283 (antisense eT*e[5mC]*eT*e[5mC]*eA*dA*dA*dG*dA*dG*dT*dA*dA*d[5mC]*d[5mC]*eA*eG*eA*eG*e[5mC]) [compound 546283]
- % inhibition [8]: 88%

Substance: 546890 (eT*eG*eT*e[5mC]*e[5mC]*dT*dA*dT*dG*dT*d[5mC]*dA*d[5mC]*dT*dG*eT*eA*e[5mC]*e[5mC]*eT; antisense) [compound 546890]
- % inhibition [2]: 78%

Substance: 546136 (eG*eG*eA*eG*eG*dT*dG*dA*dG*dT*d[5mC]*dT*d[5mC]*dT*dT*eG*eT*e[5mC]*eA*e[5mC]; antisense) [compound 546136]
- % inhibition [4]: 86%

Substance: 547648 (e[5mC]*e[5mC]*eT*eA*eT*dA*dA*d[5mC]*dA*dG*dT*dA*dT*d[5mC]*dA*e[5mC]*eT*eG*eT*eA; antisense) [compound 547648]
- % inhibition [2]: 83%

Substance: 547778 (antisense eT*e[5mC]*eA*e[5mC]*e[5mC]*dT*dG*dT*dG*dA*dG*dT*dA*dA*d[5mC]*e[5mC]*eA*eA*eT*eA) [compound 547778]
- % inhibition [5]: 53%

Substance: 547500 (antisense e[5mC]*e[5mC]*eT*eA*eG*dA*d[5mC]*dT*d[5mC]*dT*dG*dG*dA*d[5mC]*dT*eG*e[5mC]*eT*eT*e[5mC]) [compound 547500]
- % inhibition [9]: 65%

Substance: 546226 (antisense e[5mC]*e[5mC]*eA*eT*eA*d[5mC]*dA*dT*dT*dT*dG*dT*dA*dT*dA*eG*eA*eA*eT*eG) [compound 546226]
- % inhibition [1]: 37%

Substance: 546422 (eA*e[5mC]*eG*eG*eT*d[5mC]*dT*dT*d[5mC]*dA*dA*dG*d[5mC]*dT*dG*eT*eT*e[5mC]*eT*eA; antisense) [compound 546422]
- % inhibition [7]: 72%

Substance: 546379 (antisense e[5mC]*eT*e[5mC]*e[5mC]*eA*dT*dG*d[5mC]*dT*dT*dT*dG*d[5mC]*dA*dG*eA*eT*eG*eA*eG) [compound 546379]
- % inhibition [9]: 69%

Substance: 546137 (eA*eT*eT*eG*e[5mC]*dT*dT*d[5mC]*dT*dT*dG*dG*dA*dG*dG*eT*eG*eA*eG*eT; antisense) [compound 546137]
- % inhibition [4]: 76%

Substance: 547320 (antisense eA*eG*eG*eA*eA*dT*dG*dT*d[5mC]*d[5mC]*dA*dG*dA*dA*dA*e[5mC]*eT*eG*e[5mC]*eA) [compound 547320]
- % inhibition [10]: 73%

Substance: 548728 (DNA eT*eA*e[5mC]*eT*dA*dG*dT*dT*dT*d[5mC]*d[5mC]*dT*dA*dT*eA*eA*e[5mC]; antisense) [compound 548728]
- % inhibition [3]: 0%

Substance: 547661 (eT*eA*eA*e[5mC]*eT*dA*dT*dA*dA*d[5mC]*dA*dG*dT*dA*dT*e[5mC]*eA*e[5mC]*e[5mC]*eG; antisense) [compound 547661]
- % inhibition [2]: 80%

Substance: 547734 (eG*eT*eA*eG*eG*dA*dT*dT*dG*dG*dT*dG*dG*dT*dG*eG*eG*eA*eT*eT; antisense) [compound 547734]
- % inhibition [5]: 14%

Substance: 546893 (e[5mC]*eA*e[5mC]*eT*eG*dT*d[5mC]*d[5mC]*dT*dA*dT*dG*dT*d[5mC]*dA*e[5mC]*eT*eG*eT*eA; antisense) [compound 546893]
- % inhibition [2]: 70%

Substance: 546241 (e[5mC]*eA*eG*eG*eT*dA*dA*dA*dG*dT*dT*d[5mC]*dT*dT*dT*eT*eG*e[5mC]*eA*eG; antisense) [compound 546241]
- % inhibition [1]: 69%

Substance: 546865 (eT*eA*eT*eA*eA*d[5mC]*dT*dA*dT*dA*dA*d[5mC]*dA*dA*dT*eA*eT*e[5mC]*eA*e[5mC]; antisense) [compound 546865]
- % inhibition (human PKK mRNA in HepaRG cells, 5-10-5 gapmers, Table 14): 0%

Substance: 547328 (antisense eA*eT*eT*eT*eG*dA*dT*dG*dA*d[5mC]*d[5mC]*dA*d[5mC]*dA*dT*eT*eG*e[5mC]*eT*eT) [compound 547328]
- % inhibition [10]: 40%

Substance: 547696 (antisense e[5mC]*eA*e[5mC]*eT*eG*dT*d[5mC]*d[5mC]*dT*dA*dT*dA*dA*d[5mC]*dT*eA*eT*eT*eA*e[5mC]) [compound 547696]
- % inhibition (HepaRG cells, 5,000 nM antisense oligonucleotide, 5-10-5 gapmers, Table 16): 26%

Substance: 547643 (eA*eT*e[5mC]*eA*e[5mC]*dT*dG*dT*d[5mC]*d[5mC]*dT*dA*dT*dA*dA*e[5mC]*eT*eA*eT*eA; antisense) [compound 547643]
- % inhibition [2]: 72%

Substance: 546280 (e[5mC]*e[5mC]*eA*eG*eA*dG*d[5mC]*dT*d[5mC]*d[5mC]*d[5mC]*dT*dT*dG*dT*eG*eT*e[5mC]*e[5mC]*e[5mC]; antisense) [compound 546280]
- % inhibition [8]: 86%

Substance: 548774 (antisense e[5mC]*e[5mC]*eT*eA*dT*dA*dA*d[5mC]*dT*dA*dT*dA*dA*e[5mC]*eA*eG*eT) [compound 548774]
- % inhibition [6]: 0%
